We go through 28 compounds from ChEMBL document CHEMBL4261617, “Design and synthesis of a novel series of non-nucleoside HIV-1 inhibitors bearing pyrimidine and N-substituted aromatic piperazine” (Bioorg Med Chem Lett, 2018).

Data set [1] in a line: Selectivity index, ratio of CC50 for human MT4 cells to EC50 for wild-type HIV1 3B infected in human MT4 cells. The format is toxicity, cell-based. The following applies: MT4 cells infected with wild-type HIV1 3B, read-out: Ratio CC50/EC50.
Data set [2] is described as follows: Solubility of the compound in DMSO at 125 ug/ml. The format is physicochemical.
Data set [3] addresses Human immunodeficiency virus type 1 reverse transcriptase (Human immunodeficiency virus 1, UniProt Q72547). Description: Inhibition of recombinant wild-type HIV1 GST-fused reverse transcriptase p66/p51 RNA-dependent DNA polymerase activity expressed in Escherichia coli assessed as reduction in biotin-dUTP incorporation using poly(rA)/oligo(dT)16 as template/primer after 40 mins by PicoGreen dye based spectrofluorometric analysis.

Data set [4] relates to Human immunodeficiency virus 1. Description: Antiviral activity against HIV1 RES056 harboring K103N/Y181C double mutant infected in human MT4 cells assessed as protection against virus-induced cytopathic effect after 4 days by MTT assay. The format is functional, organism-based. The note with it: Human immunodeficiency virus 1, RES056, MT4, 96 h.
In data set [5] the test system is Human immunodeficiency virus 2. Description: Antiviral activity against HIV2 ROD infected in human MT4 cells assessed as protection against virus-induced cytopathic effect after 4 days by MTT assay. The note with it: Human immunodeficiency virus 2, ISOLATE ROD, MT4, 96 h. The format is functional, organism-based.
Data set [6] can be described thus: Cytotoxicity against human MT4 cells assessed as reduction in cell viability after 4 days by MTT assay. The format is cell-based.
Data set [7] concerns Human immunodeficiency virus 1. Description: Antiviral activity against wild-type HIV1 3B infected in human MT4 cells assessed as protection against virus-induced cytopathic effect after 4 days by MTT assay. The format is functional, organism-based. The note with it: Human immunodeficiency virus 1, 3B, MT4, 96 h.

Consider `CCOC(=O)c1cnc(N2CCN(Cc3cccc(C(N)=O)c3)CC2)nc1Oc1c(C)cc(-c2ccc(C#N)cc2)cc1C`, for which the selectivity ratio in data set [1] came out at 4. Moreover, the solubility entry in data set [2] was “Insoluble”. In addition, in data set [3], the IC50 is no less than 93.1 µM. For the same compound, the values for the EC50 in data set [4], in data set [5] and in data set [7] were greater than 14.8 µM, greater than 14.8 µM and 3.36 µM, respectively. For the same compound, the CC50 at 96 h in data set [6] was determined as 14.8 µM.

Take `CCOC(=O)c1cnc(N2CCN(Cc3ccccc3C(F)(F)F)CC2)nc1Oc1c(C)cc(-c2ccc(C#N)cc2)cc1C`: the selectivity ratio in data set [1] came out at 1. Besides, the EC50 in data set [5] and in data set [7] was greater than 125 µM each time. The CC50 at 96 h in data set [6] is greater than 125 µM.

Regarding `CCOC(=O)c1cnc(N2CCN(Cc3ccc(S(C)(=O)=O)cc3)CC2)nc1Oc1c(C)cc(-c2ccc(C#N)cc2)cc1C`, the selectivity ratio in data set [1] was 1. In addition, the EC50 in data set [5] and in data set [7] was greater than 125 µM throughout. In data set [6], the cytotoxic concentration (CC50) at 96 h is greater than 125 µM.

In the case of `CCOC(=O)c1cnc(N2CCN(Cc3ccc(C(N)=O)cc3)CC2)nc1Oc1c(C)cc(-c2ccc(C#N)cc2)cc1C`, the selectivity ratio in data set [1] was less than 1. The solubility result in data set [2] is “Insoluble”. In addition, in data set [3], the IC50 is no less than 113 µM. The EC50 in data set [4], in data set [5] and in data set [7] was greater than 66.5 µM each time. In addition, the CC50 at 96 h in data set [6] turned out to be 66.5 µM.

`CCOC(=O)c1cnc(N2CCN(Cc3cccc(F)c3)CC2)nc1Oc1c(C)cc(-c2ccc(C#N)cc2)cc1C`: the selectivity ratio in data set [1] was found to be 1. In addition, the EC50 in data set [5] and in data set [7] was greater than 125 µM each time. Besides, the CC50 at 96 h in data set [6] was greater than 125 µM.

Turning to `CCOC(=O)c1cnc(N2CCN(Cc3cc(C)cc(C)c3)CC2)nc1Oc1c(C)cc(-c2ccc(C#N)cc2)cc1C`, the selectivity ratio in data set [1] amounted to 1. Besides, the EC50 in data set [5] and in data set [7] was greater than 125 µM throughout. Further, the CC50 at 96 h in data set [6] is greater than 125 µM.

In the case of `Cc1cc(C#N)cc(C)c1Oc1nc(Nc2ccc(C#N)cc2)nc(N)c1Br` [ETRAVIRINE], the results for the EC50 in data set [4] and in data set [7] were 0.015 µM and 0.0022 µM, respectively. Also, the CC50 at 96 h in data set [6] is greater than 2 µM.

`CCOC(=O)c1cnc(N2CCN(Cc3cc(F)cc(F)c3)CC2)nc1Oc1c(C)cc(-c2ccc(C#N)cc2)cc1C`: in data set [1], the selectivity ratio is 1. Also, the EC50 in data set [5] and in data set [7] was greater than 125 µM throughout. The CC50 at 96 h in data set [6] was greater than 125 µM.

For the compound `CCOC(=O)c1cnc(N2CCN(Cc3ccccc3F)CC2)nc1Oc1c(C)cc(-c2ccc(C#N)cc2)cc1C`, the selectivity ratio in data set [1] was 1. The EC50 in data set [5] and in data set [7] was greater than 125 µM each time. Also, in data set [6], the CC50 at 96 h was greater than 125 µM.

For the compound `CCOC(=O)c1cnc(N2CCN(Cc3ccc(C(=O)OC)cc3)CC2)nc1Oc1c(C)cc(-c2ccc(C#N)cc2)cc1C`, in data set [1], the selectivity ratio was 1. Moreover, the EC50 in data set [5] and in data set [7] was greater than 125 µM throughout. Moreover, the CC50 at 96 h in data set [6] was greater than 125 µM.

On to `CCOC(=O)c1cnc(N2CCN(Cc3cccc(Br)c3)CC2)nc1Oc1c(C)cc(-c2ccc(C#N)cc2)cc1C`, for which the selectivity ratio in data set [1] stood at 1. For the same compound, the EC50 in data set [5] and in data set [7] was greater than 125 µM throughout. For the same compound, in data set [6], the CC50 at 96 h was greater than 125 µM.

For `CCOC(=O)c1cnc(N2CCN(Cc3cccc(C(F)(F)F)c3)CC2)nc1Oc1c(C)cc(-c2ccc(C#N)cc2)cc1C`, in data set [1], the selectivity ratio came to 1. Besides, the EC50 in data set [5] and in data set [7] was greater than 125 µM throughout. Also, the CC50 at 96 h in data set [6] is greater than 125 µM.

As to `CCOC(=O)c1cnc(N2CCN(Cc3ccc(C(F)(F)F)cc3)CC2)nc1Oc1c(C)cc(-c2ccc(C#N)cc2)cc1C`, the selectivity ratio in data set [1] came to 1. Also, the EC50 in data set [5] and in data set [7] was greater than 125 µM throughout. Also, the CC50 at 96 h in data set [6] was greater than 125 µM.

As to `CCOC(=O)c1cnc(N2CCN(Cc3ccccc3C#N)CC2)nc1Oc1c(C)cc(-c2ccc(C#N)cc2)cc1C`, in data set [1], the selectivity ratio stood at 1. The EC50 in data set [5] and in data set [7] was greater than 125 µM in each case. In addition, the CC50 at 96 h in data set [6] is greater than 125 µM.

In the case of `CCOC(=O)c1cnc(N2CCN(Cc3ccccc3[N+](=O)[O-])CC2)nc1Oc1c(C)cc(-c2ccc(C#N)cc2)cc1C`, the selectivity ratio in data set [1] is 1. Moreover, the EC50 in data set [5] and in data set [7] was greater than 78.7 µM throughout. The CC50 at 96 h in data set [6] is no less than 78.7 µM.

Take `CCOC(=O)c1cnc(N2CCN(Cc3ccc(S(N)(=O)=O)cc3)CC2)nc1Oc1c(C)cc(-c2ccc(C#N)cc2)cc1C`: the selectivity ratio in data set [1] turned out to be 1. Further, the solubility entry in data set [2] is “Insoluble”. In addition, the IC50 in data set [3] was determined as 63.5 µM. The EC50 in data set [4] was greater than 7.93 µM; in data set [5], greater than 7.93 µM; in data set [7], no less than 24.9 µM. In addition, the CC50 at 96 h in data set [6] was no less than 7.93 µM.

For `CCOC(=O)c1cnc(N2CCN(Cc3ccccc3C(=O)OC)CC2)nc1Oc1c(C)cc(-c2ccc(C#N)cc2)cc1C`, the selectivity ratio in data set [1] turned out to be 1. The EC50 in data set [5] and in data set [7] was greater than 125 µM in each case. Also, the CC50 at 96 h in data set [6] was greater than 125 µM.

As to `CCOC(=O)c1cnc(N2CCN(Cc3ccccc3Br)CC2)nc1Oc1c(C)cc(-c2ccc(C#N)cc2)cc1C`, the selectivity ratio in data set [1] is 1. Also, the EC50 in data set [5] and in data set [7] was greater than 125 µM each time. Besides, the CC50 at 96 h in data set [6] is greater than 125 µM.

For `CCOC(=O)c1cnc(N2CCN(Cc3ccc(F)cc3)CC2)nc1Oc1c(C)cc(-c2ccc(C#N)cc2)cc1C`, in data set [1], the selectivity ratio turned out to be 1. The solubility entry in data set [2] was “Insoluble”. Moreover, in data set [3], the IC50 was greater than 120 µM. Also, the EC50 was greater than 118 µM in data set [4], greater than 118 µM in data set [5] and no less than 120 µM in data set [7]. In addition, the cytotoxic concentration (CC50) at 96 h in data set [6] is greater than 118 µM.

On to `Cc1ccnc2c1NC(=O)c1cccnc1N2C1CC1` [NEVIRAPINE], for which the EC50 is greater than 4 µM in data set [4] and 0.1 µM in data set [7]. In addition, in data set [6], the CC50 at 96 h was greater than 4 µM.

`CCOC(=O)c1cnc(N2CCN(Cc3ccc(C#N)cc3)CC2)nc1Oc1c(C)cc(-c2ccc(C#N)cc2)cc1C`: in data set [1], the selectivity ratio came out at 1. Moreover, the EC50 in data set [5] and in data set [7] was greater than 125 µM in each case. Further, in data set [6], the CC50 at 96 h is greater than 125 µM.

Consider `CCOC(=O)c1ccc(CN2CCN(c3ncc(C(=O)OCC)c(Oc4c(C)cc(-c5ccc(C#N)cc5)cc4C)n3)CC2)cc1`, for which the selectivity ratio in data set [1] was found to be 1. Besides, the EC50 in data set [5] and in data set [7] was greater than 125 µM each time. Besides, the CC50 at 96 h in data set [6] is greater than 125 µM.

`CCOC(=O)c1cnc(N2CCN(Cc3cccc(C(=O)OC)c3)CC2)nc1Oc1c(C)cc(-c2ccc(C#N)cc2)cc1C`: the selectivity ratio in data set [1] is 1. In addition, the EC50 in data set [5] and in data set [7] was greater than 125 µM in each case. Besides, in data set [6], the CC50 at 96 h was greater than 125 µM.

Turning to `CCOC(=O)c1cnc(N2CCN(Cc3ccc([N+](=O)[O-])cc3)CC2)nc1Oc1c(C)cc(-c2ccc(C#N)cc2)cc1C`, in data set [1], the selectivity ratio turned out to be 1. Moreover, the EC50 in data set [5] and in data set [7] was greater than 125 µM in each case. For the same compound, the CC50 at 96 h in data set [6] is greater than 125 µM.

For `CCOC(=O)c1cnc(N2CCN(Cc3cccc(OC)c3)CC2)nc1Oc1c(C)cc(-c2ccc(C#N)cc2)cc1C`, the selectivity ratio in data set [1] came to 1. Besides, the EC50 in data set [5] and in data set [7] was greater than 125 µM each time. For the same compound, the CC50 at 96 h in data set [6] is greater than 125 µM.

In the case of `CCOC(=O)c1cnc(N2CCN(Cc3ccc(Br)cc3)CC2)nc1Oc1c(C)cc(-c2ccc(C#N)cc2)cc1C`, the selectivity ratio in data set [1] is 1. For the same compound, the EC50 in data set [5] and in data set [7] was greater than 125 µM in each case. For the same compound, the CC50 at 96 h in data set [6] is greater than 125 µM.

As for `CCOC(=O)c1cnc(N2CCN(Cc3cccc(C#N)c3)CC2)nc1Oc1c(C)cc(-c2ccc(C#N)cc2)cc1C`, the selectivity ratio in data set [1] stood at 1. The EC50 in data set [5] and in data set [7] was greater than 125 µM throughout. Further, the CC50 at 96 h in data set [6] is greater than 125 µM.

As for `CCOC(=O)c1cnc(N2CCN(Cc3cccc([N+](=O)[O-])c3)CC2)nc1Oc1c(C)cc(-c2ccc(C#N)cc2)cc1C`, the selectivity ratio in data set [1] was greater than 4. Also, the solubility result in data set [2] is “Insoluble”. Moreover, in data set [3], the IC50 is 114 µM. The EC50 in data set [4] is greater than 125 µM; in data set [5], greater than 125 µM; in data set [7], 31.5 µM. In addition, the CC50 at 96 h in data set [6] is greater than 125 µM.
